Data published in BigSolDB 2.1.

O=C(O)CCC(=O)C(=O)O
solubility (mole fraction)
Details | 278.15 K | 280.15 K | 282.15 K | 284.15 K | 286.15 K | 288.15 K | 293.15 K
in ethyl acetate | 0.0358 | 0.0374 | 0.0392 | 0.0418 | 0.0455 | 0.0494 | 0.0603
in n-butyl acetate | 0.0261 | 0.0284 | 0.0303 | 0.0337 | 0.0363 | 0.0391 | 0.0466
in water | 0.11 | 0.114 | 0.12 | 0.128 | 0.135 | 0.146 | 0.168
